# Reference: patent US20260198495A1, “BINARY INSECTICIDE COMPOSITION AND USE THEREOF” (SHENYANG SINOCHEM AGROCHEMICALS R & D CO., LTD., priority 2022, published 2026)
# Read-outs that look alike come from different tables or passages of the source.
# How the values were obtained:
# Type in all cases: in vivo
# [1] = test system: Sitobion miscanthi (Fabricius); test: whole plant or invertebrate; settings: for Measured mortality rate: single pesticide, 48 hours
# Experimental: Test target: Sitobion miscanthi (Fabricius).
# (§1) Preparation of the pesticide solution: according to different test requirements, the test samples were accurately weighed respectively with an electronic analytical balance. The technical pesticides were dissolved in acetone, and then diluted with 0.1% Tween 80 water into a series of pesticide solutions with a certain concentration gradient according to the experimental design dosage.
# Experimental method: first, wheat seedlings with uniform and consistent Sitobion miscanthi (Fabricius) were selected, with about 30-40 insects on each pot of wheat. Then, they were evenly sprayed with the pesticide solution in the order from low dosage to high dosage according to the experimental design, with 2.5 mL for each pot and 3 replicates for each treatment. In addition, a blank control CK was set up.
# (§2) The treated test materials were placed in an observation room, and the temperature, humidity and illumination of the observation room could be adjusted as needed. The number of dead and alive insects was investigated 48 hours later, and the corrected mortality rate was calculated using the Abbott's formula.
# The synergism of the mixture was evaluated by the Bliss method. According to the concept of independent joint action he proposed, Bliss believes that the theoretical mortality rate P when insecticides are used in combination can be calculated by the following formula: […]
# Pm is the measured mortality rate (%) of the target when the first active ingredient is at a concentration of m; and Pn is the measured mortality rate (%) of the target when the second active ingredient is used at a concentration of n.
# (§3) If the actual mortality rate of the target after the two active ingredients are mixed at a certain concentration is greater than theoretical mortality rate P, it is determined that the two active ingredients have a synergistic effect when used in combination at the set concentration, and otherwise, they have an antagonistic effect.
# [2] = test system: 3rd-instar larvae of Pyrausta nubilalis Hubern; test: Synergism assay (Bliss) of I-72 + cartap, monosultap, bisultap, Example 5, Table 5; settings: 72 h
# Experimental: Test subject: 3rd-instar larvae of Pyrausta nubilalis Hubern, a sensitive strain reared indoors.
# (§4) Test conditions: temperature: 24-26° C., humidity: RH 60%, and illumination: L:D=14:10
# Preparation method: the test pesticides were accurately weighed respectively with an electronic analytical balance. After the two technical materials were respectively added into an appropriate amount of solvent and completely dissolved, the stock solution of the required concentration was prepared with water containing 0.1% Tween 80. The stock solutions of the two active ingredients were mixed in a certain ratio to prepare a mixed solution, which was then diluted respectively into a series of pesticide solutions with a certain concentration gradient according to the experimental design dosage.
# Experimental method: the artificial diet-pesticide film method was adopted. A standard clean 24-well culture plate was selected. 1 ml of artificial diet was added to each well. After the diet cooled and solidified, a quantitative amount of a pesticide solution was added to the culture plate using a continuous sampler, and then it was air-dried naturally in the shade. The standard test insects were introduced, with 1 insect in each well, a total of 48 insects. The treated test insects were placed in an observation room under certain conditions. The reaction of the test insects was regularly observed, and the number of dead and live insects was investigated 72 h later.
# The evaluation method adopted was the Bliss method. This method is applicable to the qualitative screening of insecticidal compositions. According to the concept of independent joint action he proposed, Bliss believes that the theoretical mortality rate P when insecticides are used in combination can be calculated by the following formula: […]
# Pm is the mortality rate (%) of the target when the first active ingredient is at a concentration of m; and Pn is the mortality rate (%) of the target when the second active ingredient is at a concentration of n.
# as §3
# [3] = test system: 3rd-instar larvae of Ostrinia furnacalis Guenee; test: Synergism screening (Bliss) of I-72 + ecdysteroid and juvenile hormone insecticides, Example 51, Table 51; settings: for Measured mortality rate: single pesticide, 72 hours
# Experimental: Test target: 3rd-instar larvae of Ostrinia furnacalis Guenee.
# as §1
# (§5) Experimental method: first, tender corn stems were selected and dipped in the prepared pesticide solution for 10 s in the order from low dosage to high dosage according to the experimental design. After natural air-drying in the shade, they were placed in a 9-cm-diameter Petri dish with filter paper, and uniform and healthy test insects were introduced, with 10 insects for each treatment and 3 replicates for each treatment. In addition, a blank control (CK) was set up.
# as §2, with “72” for “48”
# The synergism of the mixture was evaluated by adopting the Bliss method, as in Example 5.
# [4] = test system: early 2nd-instar grubs of Holotrichia diomphalia Bates; test: whole plant or invertebrate
# Experimental: Test target: early 2nd-instar grubs of Holotrichia diomphalia Bates.
# as §4, §1
# Experimental method: the activity against Holotrichia diomphalia Bates was determined by the insect-dipping method. The early 2nd-instar grubs of Holotrichia diomphalia Bates were selected. The target insects were dipped into the pesticide solution for 10 s and then taken out. Excess pesticide solution was absorbed with filter paper. […] A treatment without the pesticide was set as the blank control.
# The test insects were transferred to a multi-well culture plate with fresh potato pieces and placed in an observation room, and the temperature, humidity and illumination of the observation room could be adjusted as needed. The number of dead and live insects was investigated 72 hours later. The corrected mortality rate was calculated using the Abbott's formula, and statistical analysis was performed with the DPS data processing software to obtain the toxicity regression equation and LC50 value of each single test pesticide and each mixture of different ratios.
# [5] = test system: Rhizoctonia solani; test: Control efficacy against Rhizoctonia solani, rice seedling potting method, Example 89, Table 89; settings: rice seedlings, foliar spraying
# Experimental: Control efficacy of the composition containing the compound I-72 against Rhizoctonia solani
# Test target: Rhizoctonia solani, a sensitive strain cultured indoors.
# The trial adopted the seedling potting method. Test crop: rice. Experimental method: the rice seedlings were cultured to the 2-leaf stage in the greenhouse of the experimental materials. Foliar spraying treatment was performed on the crop sprayer according to the designed dosage. The test target strain was inoculated 24 hours after the pesticide treatment. All the inoculated experimental materials were cultured in a phytotron. […] The disease grading and the calculation method of the control efficacy both referred to the agricultural industry standards of the People's Republic of China.
# [6] = test system: 3rd-instar larvae of Chilo suppressalis (Walker); test: Joint toxicity of I-72 + organophosphorus insecticides, rice seedling dipping, Example 15, Table 15; settings: 3rd-instar larvae, rice seedling dipping, 48 h, A = compound I-72, B = diazinon, read-out: LC50
# Experimental: Test target: 3rd-instar larvae of Chilo suppressalis (Walker), a sensitive strain reared indoors.
# as §1
# as §5, with “first, tender and fresh rice seedlings were selected” for “first, tender corn stems were selected”, “they were cut into small sections of 5 cm, placed in” for “they were placed in”, “blank control was set” for “blank control (CK) was set”
# (§6) The treated test materials were placed in an observation room, and the temperature, humidity and illumination of the observation room could be adjusted as needed. The number of dead and live insects was investigated 48 hours later. The corrected mortality rate was calculated using the Abbott's formula, and statistical analysis was performed with the DPS data processing software to obtain the toxicity regression equation, LC50 value and 95% confidence limit of each single test pesticide and each mixture of different ratios. Then, the co-toxicity coefficient of each ratio was calculated using the Sun Y-P method to evaluate the mixing effect (the same as in Example 1).
# [7] = test system: Aphis gossypii Glover nymphs; test: Joint toxicity of I-72 + organophosphorus insecticides, cotton leaf spraying, Example 17, Table 17; settings: 48 h
# Experimental: Test target: Aphis gossypii Glover nymphs, a sensitive strain reared indoors.
# as §1
# Experimental method: first, cotton leaves with uniform and consistent Aphis gossypii were selected, with about 20 insects on each leaf. Then, they were evenly sprayed with the pesticide solution in the order from low dosage to high dosage according to the experimental design, with 1.5 mL for each leaf and 3 replicates for each treatment. In addition, a blank control was set up.
# as §6
# [8] = test system: Frankliniella occidentalis Pergande; test: Joint toxicity of I-72 + organophosphorus insecticides, leaf dipping, Example 14, Table 14; settings: in Phaseolus vulgaris, foliar, 48 h
# Source text: Test target: Frankliniella occidentalis Pergande, a sensitive strain reared indoors.
# Experimental method: first, kidney bean leaves were selected and dipped in the prepared pesticide solution for 10 s in the order from low dosage to high dosage according to the experimental design. After natural air-drying in the shade, they were placed in a 9-cm-diameter Petri dish with filter paper, and uniform and healthy test insects were introduced, with about 20 insects for each treatment and 3 replicates for each treatment. In addition, a blank control was set up.
# [9] = test system: 3rd-instar larvae of Hyphantria cunea; test: Joint toxicity of I-72 + organophosphorus insecticides, poplar leaf dipping, Example 20, Table 20; settings: foliar, A = compound I-72, B = phoxim, poplar leaf dipping, 72 hours, read-out: LC50
# Source text: Test target: 3rd-instar larvae of Hyphantria cunea, a sensitive strain reared indoors.
# Experimental method: first, fresh and tender poplar leaves were selected, cut into small sections of 5 cm, and dipped in the prepared pesticide solution for 10 s in the order from low dosage to high dosage according to the experimental design. After natural air-drying in the shade, they were placed in a 9-cm-diameter Petri dish with filter paper, and uniform and healthy test insects were introduced, with 10 insects for each treatment and 3 replicates for each treatment. In addition, a blank control was set up.
# The treated test materials were placed in an observation room, and the temperature, humidity and illumination of the observation room could be adjusted as needed. The number of dead and live insects was investigated 72 hours later.
# [10] = Sitobion miscanthi, in Triticum aestivum, 48 h, read-out: Measured mortality rate
# [11] = Ostrinia nubilalis, read-out: Mortality rate (%)
# [12] = Ostrinia furnacalis, 72 h, read-out: Measured mortality rate
structure (smiles),measurement,setting,value
CC(C)(C)[C@@H](O)[C@@H](Cc1ccc(Cl)cc1)n1cncn1 (racemic) [Paclobutrazol],mortality at 1 µg/mL,[1]; [10],6.8%
same,mortality at 10 µg/mL,[1]; [10],7.8%
same,mortality at 100 µg/mL,[1]; [10],11.3%
"CN(C)C(CSS(=O)(=O)[O-])CSS(=O)(=O)[O-].[Na+].[Na+] [Bisultap, bisultap]",Mortality rate (%),[2]; single agent 0.1 mg/L,0%
same,Mortality rate (%),[2]; single agent 1 mg/L,4.17%
same,Mortality rate (%),[2]; single agent 5 mg/L,10.42%
same,Mortality rate (%),[2]; single agent 10 mg/L,22.92%
CC(C)[C@H](C)[C@@H](O)[C@H](O)[C@@H](C)[C@H]1CC[C@H]2[C@@H]3COC(=O)[C@H]4C[C@H](O)[C@H](O)C[C@]4(C)[C@H]3CC[C@]12C [Brassinolide],Measured mortality rate,[1]; 0.5 mg/L,6.7%
same,Measured mortality rate,[1]; 10 mg/L,8.8%
same,Measured mortality rate,[1]; 200 mg/L,12.6%
"CN(C)C(CSC(N)=O)CSC(N)=O [Cartap, cartap]",mortality at 0.1 µg/mL,[2]; [11],2.08%
same,mortality at 1 µg/mL,[2]; [11],10.4%
same,mortality at 5 µg/mL,[2]; [11],20.8%
same,mortality at 10 µg/mL,[2]; [11],43.8%
Nc1nc(N)nc(NC2CC2)n1 [Cyromazine],mortality at 0.1 µg/mL,[3]; [12],6.9%
same,mortality at 2 µg/mL,[3]; [12],10.7%
same,mortality at 40 µg/mL,[3]; [12],21.2%
O=P(O)(O)CCCl [Ethephon],mortality at 0.2 µg/mL,[1]; [10],7%
same,mortality at 10 µg/mL,[1]; [10],8.8%
same,mortality at 500 µg/mL,[1]; [10],15%
Cc1cc(C)cc(C(=O)N(NC(=O)c2ccc3c(c2C)OC(C)C3)C(C)(C)C)c1 (centres unmarked) [Fufenozide],Measured mortality rate,[3]; 0.1 mg/L,9.4%
same,Measured mortality rate,[3]; 2 mg/L,15.4%
same,Measured mortality rate,[3]; 40 mg/L,41.9%
C=C1C[C@]23C[C@@]1(O)CC[C@H]2[C@@]12C=C[C@H](O)[C@@](C)(C(=O)O1)[C@H]2[C@@H]3C(=O)O [Gibberellic acid],mortality at 0.5 µg/mL,[1]; [10],5.9%
same,mortality at 10 µg/mL,[1]; [10],10%
same,mortality at 200 µg/mL,[1]; [10],12.5%
COc1cccc(C(=O)NN(C(=O)c2cc(C)cc(C)c2)C(C)(C)C)c1C [Methoxyfenozide],mortality at 0.1 µg/mL,[3]; [12],11.1%
same,mortality at 2 µg/mL,[3]; [12],18.8%
same,mortality at 40 µg/mL,[3]; [12],50%
"CN(C)C(CSS(=O)(=O)[O-])CSS(=O)(=O)O.[Na+] [Monosultap, monosultap]",Mortality rate (%),[2]; single agent 0.1 mg/L,0%
same,Mortality rate (%),[2]; single agent 1 mg/L,6.25%
same,Mortality rate (%),[2]; single agent 5 mg/L,18.75%
same,Mortality rate (%),[2]; single agent 10 mg/L,29.17%
CC(COc1ccc(Oc2ccccc2)cc1)Oc1ccccn1 (centres unmarked) [Pyriproxyfen],mortality at 0.04 µg/mL,[3]; [12],7.1%
same,mortality at 2 µg/mL,[3]; [12],9.7%
same,mortality at 100 µg/mL,[3]; [12],16.1%
CC1=CC(=O)CC(C)(C)[C@@]1(O)/C=C/C(C)=C/C(=O)O [S-abscisic acid],Measured mortality rate,[1]; 1 mg/L,7.9%
same,Measured mortality rate,[1]; 10 mg/L,8.3%
same,Measured mortality rate,[1]; 100 mg/L,10.3%
CCc1ccc(C(=O)NN(C(=O)c2cc(C)cc(C)c2)C(C)(C)C)cc1 [Tebufenozide],mortality at 0.1 µg/mL,[3]; [12],10.3%
same,mortality at 2 µg/mL,[3]; [12],17.2%
same,mortality at 40 µg/mL,[3]; [12],46.4%
CO/C=C(/C(=O)OC)c1ccccc1Oc1cc(Oc2ccccc2C#N)ncn1 [azoxystrobin],LC50,"[4]; A = compound I-72, B = azoxystrobin, insect-dipping, 72 hours",473.5404 µg/mL
CCCCc1c(C)c2ccc(OCc3ccccc3/C(=C\OC)C(=O)OC)cc2oc1=O [coumoxystrobin],Control efficacy,"[5]; 5 mg/L, A = compound I-72, B = coumoxystrobin",44.3%
same,Control efficacy,"[5]; 10 mg/L, A = compound I-72, B = coumoxystrobin",61.9%
same,Control efficacy,"[5]; 20 mg/L, A = compound I-72, B = coumoxystrobin",81.5%
CCOP(=S)(OCC)Oc1cc(C)nc(C(C)C)n1 [diazinon],LC50,[6],6.22 µg/mL
same,LC50,[7],20.5 µg/mL
CC1COC(Cn2cncn2)(c2ccc(Oc3ccc(Cl)cc3)cc2Cl)O1 (centres unmarked) [difenoconazole],LC50,"[4]; Holotrichia diomphalia, 72 h",500 µg/mL
CCOC(=O)CC(SP(=S)(OC)OC)C(=O)OCC (centres unmarked) [malathion],LC50,[8],52.3 µg/mL
CCOP(=S)(OCC)O/N=C(\C#N)c1ccccc1 [phoxim],LC50,[9],10.1 µg/mL
same,LC50,"[7]; nymphs, cotton leaf spraying, A = compound I-72, B = phoxim, read-out: LC50",31.6 µg/mL
CO/C=C(/C(=O)OC)c1ccccc1COc1cc(-c2ccc(Cl)cc2)nn1C [pyraoxystrobin],Control efficacy,"[5]; 5 mg/L, A = compound I-72, B = pyraoxystrobin",42.8%
same,Control efficacy,"[5]; 10 mg/L, A = compound I-72, B = pyraoxystrobin",71.5%
same,Control efficacy,"[5]; 20 mg/L, A = compound I-72, B = pyraoxystrobin",82.4%
CC(C)(C)C(O)(CCc1ccc(Cl)cc1)Cn1cncn1 (centres unmarked) [tebuconazole],LC50,"[4]; Holotrichia diomphalia, 72 h",477 µg/mL
